Data reported in PubChem BioAssay AID588471 (The Scripps Research Institute Molecular Screening Center, 2011).
pIC50: −log10 of the molar value.

Key:
Test in all cases: PubChem AID 588471
[1] = biological target: Protein-arginine deiminase type-2 (Homo sapiens) (UniProt Q9Y2J8); settings: recombinant PAD1-4, BAEE citrulline colorimetric absorbance; PAD2
[2] = biological target: Protein-arginine deiminase type-1 (Homo sapiens) (UniProt Q9ULC6); settings: recombinant PAD1-4, BAEE citrulline colorimetric absorbance; PAD1
[3] = biological target: Protein-arginine deiminase type-3 (Homo sapiens) (UniProt Q9ULW8); settings: recombinant PAD1-4, BAEE citrulline colorimetric absorbance; PAD3
[4] = biological target: Protein-arginine deiminase type-4 (Homo sapiens) (UniProt Q9UM07); settings: recombinant PAD1-4, BAEE citrulline colorimetric absorbance; PAD4
Protein-arginine deiminase type-4 (Homo sapiens), sequence (Q9UM07 whole entry, looked up): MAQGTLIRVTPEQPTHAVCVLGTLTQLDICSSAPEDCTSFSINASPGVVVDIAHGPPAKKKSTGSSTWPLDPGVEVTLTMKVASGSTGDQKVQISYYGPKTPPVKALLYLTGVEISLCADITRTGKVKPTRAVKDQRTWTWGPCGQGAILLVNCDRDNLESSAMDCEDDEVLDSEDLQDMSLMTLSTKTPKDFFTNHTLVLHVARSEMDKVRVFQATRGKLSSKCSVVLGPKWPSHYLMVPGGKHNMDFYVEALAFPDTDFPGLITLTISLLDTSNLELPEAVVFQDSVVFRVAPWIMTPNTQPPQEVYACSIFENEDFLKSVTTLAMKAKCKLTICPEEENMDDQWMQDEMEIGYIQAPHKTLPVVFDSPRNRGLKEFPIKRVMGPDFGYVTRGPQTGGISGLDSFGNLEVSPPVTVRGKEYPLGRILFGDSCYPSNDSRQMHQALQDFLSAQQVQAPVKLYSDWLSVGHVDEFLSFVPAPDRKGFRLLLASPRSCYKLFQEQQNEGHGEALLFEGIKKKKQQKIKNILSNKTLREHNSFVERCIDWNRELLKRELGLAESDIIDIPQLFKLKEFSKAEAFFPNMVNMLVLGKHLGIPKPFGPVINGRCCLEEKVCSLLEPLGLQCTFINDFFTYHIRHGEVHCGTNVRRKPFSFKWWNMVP

Protein-arginine deiminase type-2 (Homo sapiens), sequence (Q9Y2J8 whole entry, looked up): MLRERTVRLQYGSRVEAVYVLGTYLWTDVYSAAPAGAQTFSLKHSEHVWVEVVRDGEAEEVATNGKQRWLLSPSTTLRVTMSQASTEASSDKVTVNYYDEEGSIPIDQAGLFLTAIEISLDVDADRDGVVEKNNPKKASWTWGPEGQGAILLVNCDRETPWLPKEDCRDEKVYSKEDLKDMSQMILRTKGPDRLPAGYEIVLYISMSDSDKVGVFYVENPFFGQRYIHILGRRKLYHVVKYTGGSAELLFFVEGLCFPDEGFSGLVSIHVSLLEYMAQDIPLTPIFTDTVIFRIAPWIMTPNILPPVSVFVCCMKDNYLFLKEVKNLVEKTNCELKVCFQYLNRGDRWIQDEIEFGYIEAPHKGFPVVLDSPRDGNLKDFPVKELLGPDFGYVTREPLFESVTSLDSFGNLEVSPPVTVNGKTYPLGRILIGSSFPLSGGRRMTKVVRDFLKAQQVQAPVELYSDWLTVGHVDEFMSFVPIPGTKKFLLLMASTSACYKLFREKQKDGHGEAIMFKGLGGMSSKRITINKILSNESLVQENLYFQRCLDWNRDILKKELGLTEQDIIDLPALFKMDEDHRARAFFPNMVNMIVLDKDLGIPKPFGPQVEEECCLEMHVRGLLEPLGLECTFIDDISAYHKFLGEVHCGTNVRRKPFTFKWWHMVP
Protein-arginine deiminase type-3 (Homo sapiens), sequence (Q9ULW8 whole entry, looked up): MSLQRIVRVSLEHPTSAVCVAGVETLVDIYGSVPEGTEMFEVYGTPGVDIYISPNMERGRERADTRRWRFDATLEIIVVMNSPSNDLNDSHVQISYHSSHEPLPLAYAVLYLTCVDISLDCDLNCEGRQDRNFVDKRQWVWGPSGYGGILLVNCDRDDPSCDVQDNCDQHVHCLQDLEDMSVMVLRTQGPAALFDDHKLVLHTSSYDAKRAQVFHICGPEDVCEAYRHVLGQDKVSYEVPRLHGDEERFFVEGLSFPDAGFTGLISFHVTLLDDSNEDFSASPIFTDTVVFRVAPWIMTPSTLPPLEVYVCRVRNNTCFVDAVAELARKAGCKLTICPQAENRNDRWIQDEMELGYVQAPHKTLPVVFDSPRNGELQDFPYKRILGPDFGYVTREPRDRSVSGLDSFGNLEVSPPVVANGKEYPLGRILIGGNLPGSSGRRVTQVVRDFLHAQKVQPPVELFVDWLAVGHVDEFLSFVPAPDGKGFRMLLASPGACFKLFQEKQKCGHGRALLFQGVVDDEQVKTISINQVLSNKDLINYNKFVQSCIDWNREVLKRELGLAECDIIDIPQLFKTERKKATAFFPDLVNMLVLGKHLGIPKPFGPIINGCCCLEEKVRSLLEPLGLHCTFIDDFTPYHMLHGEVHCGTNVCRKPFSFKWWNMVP
Protein-arginine deiminase type-1 (Homo sapiens), sequence (Q9ULC6 whole entry, looked up): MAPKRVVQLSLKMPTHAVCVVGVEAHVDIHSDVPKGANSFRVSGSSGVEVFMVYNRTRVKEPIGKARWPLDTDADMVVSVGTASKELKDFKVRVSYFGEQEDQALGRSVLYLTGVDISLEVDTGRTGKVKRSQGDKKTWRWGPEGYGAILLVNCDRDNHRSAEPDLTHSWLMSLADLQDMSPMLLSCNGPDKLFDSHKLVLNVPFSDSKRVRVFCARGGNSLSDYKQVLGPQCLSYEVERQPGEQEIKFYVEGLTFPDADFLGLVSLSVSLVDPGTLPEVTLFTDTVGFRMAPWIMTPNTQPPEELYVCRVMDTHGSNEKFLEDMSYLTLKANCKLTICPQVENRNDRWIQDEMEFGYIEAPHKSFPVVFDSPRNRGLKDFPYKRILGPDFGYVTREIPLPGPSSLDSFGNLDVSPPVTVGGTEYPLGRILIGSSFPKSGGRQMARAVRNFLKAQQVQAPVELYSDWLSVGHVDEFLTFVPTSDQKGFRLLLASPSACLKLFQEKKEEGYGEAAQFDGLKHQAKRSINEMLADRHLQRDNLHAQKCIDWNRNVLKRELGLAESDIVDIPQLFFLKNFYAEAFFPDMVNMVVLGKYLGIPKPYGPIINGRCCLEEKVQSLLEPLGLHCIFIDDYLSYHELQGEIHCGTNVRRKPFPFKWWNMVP

pIC50 [1]: 6.49
pIC50 [2]: 6.02
pIC50 [3]: 6.89
pIC50 [4]: 6.19
SMILES: NC1=CC(=O)c2ccc(-c3ccccn3)nc2C1=O
